Series [1] is described as follows: Oral bioavailability in rat. It is filed as ADME, organism-based. To be noted: in vivo.
Series [2] is described as follows: Plasma clearance in rats. In kind it is ADME, organism-based. The note with it: rat, read-out: Clp.
The nature of series [3]: Half life in rats. In kind it is ADME, organism-based. The note with it: rat, in vivo.
Series [4] in a line: Half life in dogs. In kind it is ADME, organism-based, Canis lupus familiaris. The note with it: dog, in vivo.
Series [5] is described as follows: Oral bioavailability (F) in dogs. It is filed as ADME, organism-based, Canis lupus familiaris. The note with it: dog, in vivo.
Series [6] in a line: Clearance in dogs. In kind it is ADME, organism-based, Canis lupus familiaris. The note with it: dog, in vivo.
The species named for another series is Mus musculus. Briefly: Compound (3 mpk) was tested for reduction in glucose excursion in mice by using oral glucose tolerance test (OGTT) after 1 hour. In kind it is functional.
For a further series, the target named is Dipeptidyl peptidase 4 (Homo sapiens, UniProt P27487).
Dipeptidyl peptidase 4, sequence (P27487 whole entry): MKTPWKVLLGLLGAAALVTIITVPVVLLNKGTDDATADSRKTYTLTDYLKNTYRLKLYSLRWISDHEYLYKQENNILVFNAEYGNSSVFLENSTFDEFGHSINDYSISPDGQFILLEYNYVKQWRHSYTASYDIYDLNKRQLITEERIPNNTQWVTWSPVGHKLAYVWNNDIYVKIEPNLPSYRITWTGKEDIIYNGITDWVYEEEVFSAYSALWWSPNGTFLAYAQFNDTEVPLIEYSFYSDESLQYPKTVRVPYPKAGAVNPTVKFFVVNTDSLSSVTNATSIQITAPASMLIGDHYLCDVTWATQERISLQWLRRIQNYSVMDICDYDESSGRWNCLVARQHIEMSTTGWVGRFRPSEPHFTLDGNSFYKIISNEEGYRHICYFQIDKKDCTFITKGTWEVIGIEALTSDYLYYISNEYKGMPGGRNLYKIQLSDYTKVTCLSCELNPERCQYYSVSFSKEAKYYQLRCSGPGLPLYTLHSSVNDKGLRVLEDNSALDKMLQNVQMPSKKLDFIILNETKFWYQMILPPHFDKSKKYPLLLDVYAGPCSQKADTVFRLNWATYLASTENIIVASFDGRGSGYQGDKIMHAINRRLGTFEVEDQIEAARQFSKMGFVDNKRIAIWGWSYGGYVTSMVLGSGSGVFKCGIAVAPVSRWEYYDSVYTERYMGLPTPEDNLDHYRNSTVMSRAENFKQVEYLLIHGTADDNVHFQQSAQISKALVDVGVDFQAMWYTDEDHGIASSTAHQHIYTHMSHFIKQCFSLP
The target of a further series is Dipeptidyl peptidase 2 (Homo sapiens, UniProt Q9UHL4). Description: Inhibitory activity against quiescent cell prolyl peptidase (QPP).
Series [7] concerns the target Voltage-gated inwardly rectifying potassium channel KCNH2 (Homo sapiens, UniProt Q12809). Description: Binding affinity for Potassium channel HERG Kv11.1.

Voltage-gated inwardly rectifying potassium channel KCNH2, sequence (Q12809 whole entry): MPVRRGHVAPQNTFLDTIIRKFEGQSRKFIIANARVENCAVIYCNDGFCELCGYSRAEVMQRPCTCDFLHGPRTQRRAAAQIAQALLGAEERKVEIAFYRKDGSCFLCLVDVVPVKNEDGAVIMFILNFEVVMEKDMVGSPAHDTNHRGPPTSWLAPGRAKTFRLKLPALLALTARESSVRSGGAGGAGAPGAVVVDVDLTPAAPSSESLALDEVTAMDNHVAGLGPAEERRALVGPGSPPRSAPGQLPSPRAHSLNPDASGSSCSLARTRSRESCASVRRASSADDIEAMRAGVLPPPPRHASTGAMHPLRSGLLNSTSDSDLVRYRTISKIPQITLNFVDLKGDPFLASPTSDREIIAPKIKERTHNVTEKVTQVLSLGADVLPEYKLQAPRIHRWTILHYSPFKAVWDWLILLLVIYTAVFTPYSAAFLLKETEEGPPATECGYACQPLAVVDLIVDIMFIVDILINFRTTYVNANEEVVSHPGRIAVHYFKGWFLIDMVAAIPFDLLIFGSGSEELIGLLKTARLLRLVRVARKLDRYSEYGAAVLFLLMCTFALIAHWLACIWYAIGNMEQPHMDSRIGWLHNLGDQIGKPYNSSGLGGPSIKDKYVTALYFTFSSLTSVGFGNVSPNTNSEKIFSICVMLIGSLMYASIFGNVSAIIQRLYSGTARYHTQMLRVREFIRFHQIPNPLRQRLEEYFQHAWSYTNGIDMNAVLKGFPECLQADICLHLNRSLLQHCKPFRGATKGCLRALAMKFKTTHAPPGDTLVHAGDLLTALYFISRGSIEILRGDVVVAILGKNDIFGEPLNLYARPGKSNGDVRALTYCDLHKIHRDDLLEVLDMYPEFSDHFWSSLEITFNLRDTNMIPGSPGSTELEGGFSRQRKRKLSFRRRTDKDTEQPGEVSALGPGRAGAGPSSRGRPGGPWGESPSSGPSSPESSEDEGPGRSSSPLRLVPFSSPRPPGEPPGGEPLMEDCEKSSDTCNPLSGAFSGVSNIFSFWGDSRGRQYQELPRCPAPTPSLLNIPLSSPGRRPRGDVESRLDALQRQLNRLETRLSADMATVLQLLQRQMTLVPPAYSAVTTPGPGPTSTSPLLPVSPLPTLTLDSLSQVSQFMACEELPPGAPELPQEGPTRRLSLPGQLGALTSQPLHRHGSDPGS

In series [1], `N[C@H](C(=O)N1CCSC1)[C@H]1CC[C@H](NC(=O)c2ccc(F)c(F)c2)CC1` returned a bioavailability of 81%. In addition, the clearance in series [2] came out at 30 mL/min/kg. In series [3], this molecule gave a half-life of 2 h.

On to `N[C@H](C(=O)N1CCCC1)[C@H]1CC[C@H](NC(=O)OCc2ccccc2)CC1`, for which the bioavailability in series [1] worked out at 52%. The clearance in series [2] worked out at 28 mL/min/kg. This molecule had a half-life in series [3] of 4 h.

Regarding `N[C@H](C(=O)N1CCCC1)[C@H]1CC[C@H](NS(=O)(=O)c2ccc(OC(F)(F)F)cc2)CC1`, the bioavailability in series [1] came to 38%. Moreover, the clearance in [2] was 31 mL/min/kg. The half-life in [3] is 3.6 h.

In turn, `N[C@H](C(=O)N1CCSC1)[C@H]1CC[C@H](NS(=O)(=O)c2ccc(OC(F)(F)F)cc2)CC1` registered a bioavailability in series [1] of 85%. The clearance in series [2] turned out to be 21 mL/min/kg. In [3], this molecule gave a half-life of 4.7 h.

`N[C@H](C(=O)N1CCCC1)[C@H]1CC[C@H](NS(=O)(=O)c2ccc(F)cc2F)CC1`: the half-life was 6 h in series [4] and 1.8 h in series [3]. The bioavailability was determined as 36% in series [1] and 100% in series [5]. Moreover, the clearance in [2] is 53 mL/min/kg; in series [6], 14 mL/min/kg. In addition, in the series listed under Mus musculus, the Reduction was found to be 36%.

With `N[C@H](C(=O)N1CCSC1)[C@H]1CC[C@H](NS(=O)(=O)c2ccc(I)cc2)CC1`, the IC50 on Dipeptidyl peptidase 4 is 23 nM; against Dipeptidyl peptidase 2, 280 nM.

For the molecule `N#Cc1cccc(S(=O)(=O)N[C@H]2CC[C@H]([C@H](N)C(=O)N3CCSC3)CC2)c1`, the results for the IC50 against Dipeptidyl peptidase 4 and against Dipeptidyl peptidase 2 were 24 nM and 820 nM, respectively.

With `CN(C)C(=O)Nc1ccc(S(=O)(=O)N[C@H]2CC[C@H]([C@H](N)C(=O)N3CCSC3)CC2)cc1`, the values for the IC50 against Dipeptidyl peptidase 4 and at Dipeptidyl peptidase 2 were 7.5 nM and 2000 nM, respectively.

As to `CN(C)C(=O)Nc1ccc(S(=O)(=O)N[C@H]2CC[C@H]([C@H](N)C(=O)N3CCCC3)CC2)cc1`, the bioavailability in [1] came to 1%. Further, in series [2], the clearance came to 21 mL/min/kg. Moreover, the half-life in series [3] is 2.4 h. The IC50 at Dipeptidyl peptidase 4 came to 26 nM; at Dipeptidyl peptidase 2, 12000 nM.

Regarding `N[C@H](C(=O)N1CCSC1)[C@H]1CC[C@H](NC(=O)Nc2ccc(F)c(F)c2)CC1`, the 50% inhibitory concentration (IC50) at Dipeptidyl peptidase 4 worked out at 35 nM; at Dipeptidyl peptidase 2 it was 380 nM.

For `N[C@H](C(=O)N1CCCC1)[C@H]1CC[C@H](NS(=O)(=O)c2ccc(F)c(F)c2F)CC1`, the figures for the IC50 on Dipeptidyl peptidase 4 and on Dipeptidyl peptidase 2 were 98 nM and 8200 nM, respectively.

As to `N[C@H](C(=O)N1CCSC1)[C@H]1CC[C@H](NS(=O)(=O)c2ccc3ccccc3c2)CC1`, the IC50 is 18 nM against Dipeptidyl peptidase 4 and 170 nM against Dipeptidyl peptidase 2.

As for `N[C@H](C(=O)N1CCSC1)[C@H]1CC[C@H](NS(=O)(=O)c2ccc(F)c(F)c2F)CC1`, the IC50 on Dipeptidyl peptidase 4 came out at 24 nM; on Dipeptidyl peptidase 2 it was 960 nM.

For the molecule `N[C@H](C(=O)N1CCCC1)[C@H]1CC[C@H](NC(=O)c2cccc3ccccc23)CC1`, the bioavailability in series [1] is 30%. In addition, the clearance in series [2] is 13 mL/min/kg. Further, the half-life in [3] was 2.3 h. In addition, the IC50 turned out to be 46 nM against Dipeptidyl peptidase 4 and 8600 nM at Dipeptidyl peptidase 2. This molecule displayed a Ki in series [7] of 17000 nM.

In the case of `N[C@H](C(=O)N1CCSC1)[C@H]1CC[C@H](N)CC1`, on Dipeptidyl peptidase 4, the IC50 worked out at 2700 nM.

Regarding `N[C@H](C(=O)N1CCSC1)[C@H]1CC[C@H](NC(=O)c2ccc(Cl)c(Cl)c2)CC1`, the IC50 against Dipeptidyl peptidase 4 was determined as 38 nM; against Dipeptidyl peptidase 2, 230 nM.

As to `N[C@H](C(=O)N1CCSC1)[C@H]1CC[C@H](NC(=O)c2ccc(I)cc2)CC1`, the IC50 on Dipeptidyl peptidase 4 is 33 nM; on Dipeptidyl peptidase 2 it was 340 nM.

As for `N[C@H](C(=O)N1CCSC1)[C@H]1CC[C@H](NC(=O)c2ccc3ccccc3c2)CC1`, the IC50 was found to be 21 nM against Dipeptidyl peptidase 4 and 230 nM against Dipeptidyl peptidase 2.

The molecule `N[C@H](C(=O)N1CCSC1)[C@H]1CC[C@H](NC(=O)c2cccc3ccccc23)CC1` displayed a bioavailability in series [1] of 51%. Also, the clearance in series [2] was 22 mL/min/kg. This molecule showed a half-life in series [3] of 1.2 h. For the same molecule, the IC50 against Dipeptidyl peptidase 4 is 15 nM; on Dipeptidyl peptidase 2, 900 nM. In series [7], this molecule came in with a Ki of 22000 nM.

For the molecule `N[C@H](C(=O)N1CCSC1)[C@H]1CC[C@H](NC(=O)OCc2ccc(Cl)c(Cl)c2)CC1`, the IC50 at Dipeptidyl peptidase 4 was found to be 29 nM; at Dipeptidyl peptidase 2 it was 170 nM.

Turning to `N[C@H](C(=O)N1CCSC1)[C@H]1CC[C@H](NC(=O)OCc2ccc3ccccc3c2)CC1`, the values for the IC50 at Dipeptidyl peptidase 4 and on Dipeptidyl peptidase 2 were 20 nM and 200 nM, respectively.

Regarding `N[C@H](C(=O)N1CCSC1)[C@H]1CC[C@H](NC(=O)OCc2cccc3ccccc23)CC1`, the IC50 against Dipeptidyl peptidase 4 came out at 17 nM; at Dipeptidyl peptidase 2, 170 nM.

As for `N[C@H](C(=O)N1CCSC1)[C@H]1CC[C@H](NC(=O)Nc2ccc(I)cc2)CC1`, the bioavailability in series [1] was 12%. Further, in [2], the clearance turned out to be 74 mL/min/kg. The molecule also showed a half-life in [3] of 2.3 h. Besides, the IC50 at Dipeptidyl peptidase 4 was found to be 10 nM; against Dipeptidyl peptidase 2 it was 210 nM. Also, affinity in [7] was put at a Ki of 1900 nM.

As for `N[C@H](C(=O)N1CCSC1)[C@H]1CC[C@H](NC(=O)Nc2ccc(Cl)c(Cl)c2)CC1`, the IC50 came to 17 nM at Dipeptidyl peptidase 4 and 170 nM at Dipeptidyl peptidase 2.

With `N[C@H](C(=O)N1CCSC1)[C@H]1CC[C@H](NC(=O)Nc2ccc(OC(F)(F)F)cc2)CC1`, the figures for the half-inhibitory concentration (IC50) against Dipeptidyl peptidase 4 and against Dipeptidyl peptidase 2 were 55 nM and 350 nM, respectively.

Turning to `N[C@H](C(=O)N1CCSC1)[C@H]1CC[C@H](NC(=O)c2cnc3ccccc3c2)CC1`, the IC50 at Dipeptidyl peptidase 4 was determined as 9 nM; against Dipeptidyl peptidase 2, 230 nM.

As for `N[C@H](C(=O)N1CCCC1)[C@H]1CC[C@H](NS(=O)(=O)c2ccc(NS(=O)(=O)CC(F)(F)F)cc2)CC1`, in series [1], the bioavailability was 0%. In [2], the clearance is 95 mL/min/kg. In series [3], this molecule showed a half-life of 0.1 h. Also, the IC50 against Dipeptidyl peptidase 2 amounted to 15000 nM. In series [7], this molecule displayed a Ki of more than 100000 nM.

For `N#Cc1ccc(NCCNCC(=O)N2CCC[C@H]2C#N)nc1`, the IC50 on Dipeptidyl peptidase 2 came to 6600 nM. In other words, the single-digit micromolar range.
